ChEMBL document CHEMBL5506065, “Discovery of Novel Non-Nucleoside Inhibitors Interacting with Dizinc Ions of CD73” (J Med Chem, 2024)
The source made the active and inactive calls. The calls are words filed in the database; no cut-off is given here.

Experiments:
E.G7-OVA [1] = assay: In vivo antitumor activity against mouse E.G7-OVA T cell lymphoma subcutaneously injected in syngeneic C57/BL6 mouse model assessed as tumor growth inhibition at 2.5 mg/kg, iv qw (tail vein) measured after 16 days; format: functional; conditions: 384 h, time 16 day, read-out: TGI
[2] = Inhibition of recombinant human CD73 expressed in Escherichia coli using AMP as substrate measured after 60 mins by malachite green method
[3] = Inhibition of CD73 in human MDA-MB-231 cells using AMP substrate measured after 60 mins by cell based - malachite green phosphate assay; conditions: MDA-MB-231, 1 h
[4] = Cmax in male Sprague-Dawley rat at 1 mg/kg, iv; format: ADME, organism-based; conditions: in vivo
[5] = Tmax in male Sprague-Dawley rat at 1 mg/kg, iv; format: ADME, organism-based; conditions: in vivo
[6] = Half life in male Sprague-Dawley rat at 1 mg/kg, iv; format: ADME, organism-based; conditions: in vivo
[7] = AUC (0 to t) in male Sprague-Dawley rat at 1 mg/kg, iv; format: ADME, organism-based; conditions: in vivo
[8] = Clearance in male Sprague-Dawley rat at 1 mg/kg, iv; format: ADME, organism-based; conditions: in vivo
[9] = Cmax in male Sprague-Dawley rat at 10 mg/kg, po; format: ADME, organism-based; conditions: in vivo
[10] = Tmax in male Sprague-Dawley rat at 10 mg/kg, po; format: ADME, organism-based; conditions: in vivo
[11] = Half life in male Sprague-Dawley rat at 10 mg/kg, po; format: ADME, organism-based; conditions: in vivo
[12] = AUC (0 to t) in male Sprague-Dawley rat at 10 mg/kg, po; format: ADME, organism-based; conditions: in vivo
[13] = Clearance in male Sprague-Dawley rat at 10 mg/kg, po; format: ADME, organism-based; conditions: in vivo
E.G7-OVA [14] = assay: In vivo antitumor activity against mouse E.G7-OVA T cell lymphoma subcutaneously injected in syngeneic C57/BL6 mouse model assessed as tumor growth inhibition at 50 mg/kg, ip measured after 14 days; format: functional; conditions: 336 h, time 14 day, read-out: TGI
E.G7-OVA [15] = assay: In vivo antitumor activity against mouse E.G7-OVA T cell lymphoma subcutaneously injected in syngeneic C57/BL6 mouse model assessed as tumor growth inhibition in presence of KG035 at 50 mg/kg, ip measured after 14 days; format: functional; conditions: 336 h, time 14 day, read-out: TGI
[16] = Toxicity in C57/BL6 mouse subcutaneously injected with mouse E.G7-OVA T cells assessed as change in body weight at 1 mg/kg, iv qd treated for 16 days; format: organism-based, T-cell; conditions: in vivo, 384 h, time 16 day
E.G7-OVA [17] = assay: In vivo antitumor activity against mouse E.G7-OVA T cell lymphoma subcutaneously injected in syngeneic C57/BL6 mouse model assessed as tumor growth inhibition at 1 mg/kg, iv qd (tail vein) measured after 16 days; format: functional; conditions: 384 h, time 16 day, read-out: TGI
E.G7-OVA [18] = assay: In vivo antitumor activity against mouse E.G7-OVA T cell lymphoma subcutaneously injected in syngeneic C57/BL6 mouse model assessed as tumor growth inhibition in presence of doxorubicin at 1 mg/kg, iv qd (tail vein) measured after 16 days; format: functional; conditions: 384 h, time 16 day, read-out: TGI
E.G7-OVA [19] = assay: In vivo antitumor immunity against mouse E.G7-OVA T cell lymphoma subcutaneously injected in syngeneic C57/BL6 mouse model assessed as tumor-infiltrating lymphocyte by measuring increase in CD8 positive/Treg ratio at 1 mg/kg, iv qd (tail vein) measured after 16 days by flow cytometry; format: functional, organism-based; conditions: time 16.0 day
E.G7-OVA [20] = assay: In vivo antitumor immunity against mouse E.G7-OVA T cell lymphoma subcutaneously injected in syngeneic C57/BL6 mouse model assessed as tumor-infiltrating lymphocyte by measuring increase in CD8 positive/Treg ratio in presence of doxorubicin at 1 mg/kg, iv qd (tail vein) measured after 16 days by flow cytometry; format: functional, organism-based; conditions: time 16.0 day
E.G7-OVA [21] = assay: In vivo antitumor immunity against mouse E.G7-OVA T cell lymphoma subcutaneously injected in syngeneic C57/BL6 mouse model assessed as tumor-infiltrating lymphocyte by measuring increase in CD8 positive T cell in total CD45 positive cells at 1 mg/kg, iv qd (tail vein) measured after 16 days by flow cytometry; format: functional, organism-based; conditions: time 16.0 day
E.G7-OVA [22] = assay: In vivo antitumor immunity against mouse E.G7-OVA T cell lymphoma subcutaneously injected in syngeneic C57/BL6 mouse model assessed as tumor-infiltrating lymphocyte by measuring increase in CD8 positive T cell in total CD45 positive cells in presence of doxorubicin at 1 mg/kg, iv qd (tail vein) measured after 16 days by flow cytometry; format: functional, organism-based; conditions: time 16.0 day
[23] = Half life in male Sprague-Dawley rat; format: ADME; conditions: in vivo

Row | Structure (SMILES) | IC50 [2] | IC50 [3] | further results
1 | COc1cccc2c1C(=O)c1c(O)c3c(c(O)c1C2=O)C[C@@](O)(C(=O)CO)C[C@@H]3O[C@H]1C[C@H](N)[C@H](O)[C@H](C)O1 [DOXORUBICIN] | – | – | inhibition in vivo at 2.5 mg/kg (E.G7-OVA [1]): 34.7%
2 | O=C(O)C(Cc1ccccc1)(OCc1n[nH]c2cc(-n3nnc4c(F)cc([C@@H](O)CO)cc43)ccc12)C(=O)O | 1310 nM | 1100 nM | –
3 | CC(C)(C#N)c1ccc(CC(OCc2n[nH]c3cc(-n4nnc5c(F)cc(Br)cc54)ccc23)(C(=O)O)C(=O)O)cc1 | 690 nM | 380 nM | –
4 | O=C(O)C(Cc1ccc(C(F)(F)F)o1)(OCc1n[nH]c2cc(-n3nnc4c(F)cc(Br)cc43)ccc12)C(=O)O | 890 nM | 230 nM | –
5 | O=C(O)C(Cc1ccccc1F)(OCc1n[nH]c2cc(-n3nnc4c(F)cc(Br)cc43)ccc12)C(=O)O | 200 nM | 130 nM | –
6 | Nc1cc(F)c2nnn(-c3ccc4c(COC(Cc5ccccc5)(C(=O)O)C(=O)O)n[nH]c4c3)c2c1 | 200 nM | 280 nM | –
7 | Cn1cc(CC(OCc2n[nH]c3cc(-n4nnc5c(F)cc(Br)cc54)ccc23)(C(=O)O)C(=O)O)c(C(F)(F)F)n1 | 1030 nM | 610 nM | –
8 | [2H]C([2H])(OC(Cc1ccccc1)(C(=O)O)C(=O)O)c1n[nH]c2cc(-n3nnc4c(F)cc(Cl)cc43)ccc12 | – | 100 nM | Cmax [4]: 19100 ng/mL; Tmax [5]: 4.8 min; half-life [6]: 150 min; AUC(0-t) [7]: 8740 ng·h/mL; clearance [8]: 1.93 mL/min/kg; Cmax [9]: 68.6 ng/mL; Tmax [10]: 18 min; half-life [11]: 126 min; AUC(0-t) [12]: 99.5 ng·h/mL; CL/F [13]: 1820 mL/min/kg
9 | Cc1nnc(-c2c[nH]c(=O)[nH]c2=O)cc1[C@H]1C[C@@H]1C(C)C [LY-3475070] | 170 nM | 40 nM | –
10 | O=C(O)C(Cc1ccc(F)cc1)(OCc1n[nH]c2cc(-n3nnc4c(F)cc(Br)cc43)ccc12)C(=O)O | 540 nM | 400 nM | –
11 | O=C(O)C(Cc1cn[nH]c1)(OCc1n[nH]c2cc(-n3nnc4c(F)cc(Br)cc43)ccc12)C(=O)O | 190 nM | 180 nM | –
12 | O=C(O)C(Cc1ccccc1)(OCc1n[nH]c2cc(-n3nnc4c(F)cc(NCc5ccccc5)cc43)ccc12)C(=O)O | 330 nM | 550 nM | –
13 | CC(=O)Nc1nc(CC(OCc2n[nH]c3cc(-n4nnc5c(F)cc(Br)cc54)ccc23)(C(=O)O)C(=O)O)cs1 | 530 nM | 630 nM | –
14 | O=C(O)C(Cc1ccccc1)(OCc1n[nH]c2cc(-n3nnc4c(F)cc(NCc5ccccc5C5CC5)cc43)ccc12)C(=O)O | 700 nM | 620 nM | –
15 | CC(C)OCc1cc(F)c2nnn(-c3ccc4c(COC(Cc5ccccc5)(C(=O)O)C(=O)O)n[nH]c4c3)c2c1 | 1550 nM | 1770 nM | –
16 | Cc1cc(F)c2nnn(-c3ccc4c(COC(Cc5ccccc5)(C(=O)O)C(=O)O)n[nH]c4c3)c2c1 | 1100 nM | 1520 nM | –

Row | Structure (SMILES) | IC50 [2] | IC50 [3] | further results
17 | C=Cc1cc(F)c2nnn(-c3ccc4c(COC(Cc5ccccc5)(C(=O)O)C(=O)O)n[nH]c4c3)c2c1 | 900 nM | 950 nM | –
18 | Cc1noc(C)c1CC(OCc1n[nH]c2cc(-n3nnc4c(F)cc(Br)cc43)ccc12)(C(=O)O)C(=O)O | 370 nM | 60 nM | –
19 | O=C(O)C(Cc1ccccc1)(OCc1n[nH]c2cc(-n3nnc4c(F)cc(C5CC5)cc43)ccc12)C(=O)O | 1430 nM | 1000 nM | –
20 | O=C(O)C(Cc1ccccc1)(OCc1n[nH]c2cc(-n3nnc4c(F)cc(NC5CCCC5)cc43)ccc12)C(=O)O | 490 nM | 560 nM | –
21 | C[C@H](Nc1cc(Cl)nc2c1cnn2[C@@H]1O[C@H](COP(=O)(O)CP(=O)(O)O)[C@@H](O)[C@H]1O)c1ccccc1F [QUEMLICLUSTAT] | 1 nM | 1 nM | –
22 | O=C(O)C(OCc1n[nH]c2cc(-n3nnc4c(F)cc(Br)cc43)ccc12)C(=O)O | 8700 nM | 3400 nM | –
23 | O=C(O)C(Cc1ccc(-c2ccccc2)cc1)(OCc1n[nH]c2cc(-n3nnc4c(F)cc(Br)cc43)ccc12)C(=O)O | 780 nM | 1620 nM | –
24 | Fc1cc(Br)cc2c1nnn2-c1ccc2cn[nH]c2c1 | > 20000 nM | > 20000 nM | –
25 | CCOC(=O)C(Cc1ccccc1)(OCc1n[nH]c2cc(-n3nnc4c(F)cc(Br)cc43)ccc12)C(=O)O (stereo not given) | > 20000 nM | 7100 nM | –
26 | Cc1cccc(C)c1CC(OCc1n[nH]c2cc(-n3nnc4c(F)cc(Br)cc43)ccc12)(C(=O)O)C(=O)O | 590 nM | 1030 nM | –
27 | O=C(O)C(Cc1ccccc1)(OCc1n[nH]c2cc(-n3nnc4c(F)cc(Br)cc43)ccc12)C(=O)O | 60 nM | 40 nM | Cmax [4]: 14500 ng/mL; Tmax [5]: 4.8 min; half-life [6]: 60 min; AUC(0-t) [7]: 7220 ng·h/mL; clearance [8]: 2.41 mL/min/kg; Cmax [9]: 124 ng/mL; Tmax [10]: 30 min; half-life [11]: 72 min; AUC(0-t) [12]: 144 ng·h/mL; CL/F [13]: 1210 mL/min/kg; inhibition in vivo at 50 mg/kg (E.G7-OVA [14]): 41.1%; inhibition in vivo at 50 mg/kg (E.G7-OVA [15]): 47.5%; Activity [16]: Non-Toxic; inhibition in vivo at 1 mg/kg (E.G7-OVA [17]): 12.5%; inhibition in vivo at 1 mg/kg (E.G7-OVA [18]): 44.2%; Activity (E.G7-OVA [19]): Active; Activity (E.G7-OVA [20]): Active; Activity (E.G7-OVA [21]): Active; Activity (E.G7-OVA [22]): Active
28 | O=C(O)C(Cc1ccccc1)(OCc1n[nH]c2cc(-n3nnc4c(F)cc(Cl)cc43)ccc12)C(=O)O | 130 nM | 90 nM | half-life [23]: 126 min
29 | O=C(O)C(Cc1ccccc1)(OCc1n[nH]c2cc(-n3nnc4c(F)cc(C5CCC5)cc43)ccc12)C(=O)O | 1420 nM | 620 nM | –
30 | O=C(O)C(Cc1ccc(C(F)(F)F)cc1)(OCc1n[nH]c2cc(-n3nnc4c(F)cc(Br)cc43)ccc12)C(=O)O | 2070 nM | 320 nM | –
31 | Cc1ccccc1CC(OCc1n[nH]c2cc(-n3nnc4c(F)cc(Br)cc43)ccc12)(C(=O)O)C(=O)O | 35000 nM | 340 nM | –
